Measured values from patent US20200271640A1, “METHOD FOR SCREENING COMPOUNDS THAT MODULATE THE ACTIVITY OF THE ELECTRON TRANSPORT CHAIN” (IMG Pharma Biotech, S.L., priority 2017, published 2020).
“Also recorded” adds a separate entry of the source.

What was measured:
[1] = test system: mitochondrial supercomplexes; assay: DAB oxidation activity assay of complexes and supercomplexes of the mitochondrial ETC in rat heart MMP; conditions: for effect on NADH evoked inhibition (inhibition period) of DAB oxidation, supercomplex activity: in presence of NADH; for inhibition of DAB oxidation by the substrate itself: substrate alone; for effect on NADPH consumption rate / NADPH-inhibition period of DAB oxidation: in presence of NADPH; for effect on succinate evoked decrease in DAB oxidation: in presence of succinate
Description: The crude homogenate was subjected to a 1000×g for 8 min, and the resultant supernatant was centrifuged again at 18,000×g for 15 min (4° C., Microfuge® 22R centrifuge, Beckman Coulter). The pellet was washed in 20 volumes of homogenized buffer using an Ultra-Turrax® (T10 basic, IKA) and re-centrifuged under the same conditions. The homogenate aliquots were stored at −80 ° C. until they were used. Protein concentration was measured by the Bradford method and adjusted to the required concentrations.
(§5) The assay buffer consisted of a phosphate buffer (pH 7,4), EDTA, Cl2Mg, BSA and 3,3′-diaminobenzidine (DAB) in the absence or in the presence of CI and CII substrates and the tested drugs. The reaction was started by adding 0.1 mg/ml membranes homogenates to the assay buffer (25° C.) or putting into contact cell membrane microarrays with assay buffer. DAB oxidation was measured every 5-10 min spectrophotometrically at 460 and 595 nm in a Multiskan microtiter plate reader (Thermo Scientific) for 960 min in the case of homogenates
Results were expressed as means of independent data points±S.E.M. In sake of clarity, biochemical data (Complex I and II activities, superoxide production and supercomplex activity) are presented as percentage of controls with or without the application of ETC inhibitors. Data were analyzed using paired Student's t-test, one-way (followed by Tukey's post hoc test) or two-way ANOVA (followed by Bonferroni's post hoc test), as appropriate.

[2] = test system: mitochondrial supercomplexes; assay: DAB oxidation supercomplex assay in MMP isolated from heart of cynomolgus monkey; type: biochemical; conditions: MMP from hearts of cynomolgus monkey
Description: as §5

[3] = test system: NADH-ubiquinone oxidoreductase (complex I); assay: NADH-ubiquinone oxidoreductase (complex I) activity assay, DCIP reduction; type: biochemical, rat; conditions: NADH (0.7 mM)
Description: (§1) CI and CII assays were performed based on a previous protocol with some modifications. The reaction mixture consisted of potassium phosphate buffer (0.8M K2HPO4, 0.2M KH2PO4, pH 7.4), 3 mg/ml BSA, 160 μM 2,6-dichloroindophenol (DCIP) (Sigma) together with the CI or CII substrates. The reaction was started by the addition of 0.1 mg/ml membranes homogenates (25° C.) in the absence or in the presence of decylubiquinone and ETC inhibitors. […] Control experiments were performed to exclude any interference or substrate interaction.

[4] = test system: succinate dehydrogenase (complex II); assay: succinate dehydrogenase (complex II) activity assay, DCIP reduction; type: biochemical, rat; conditions: succinate (1 mM)
Description: as §1

superoxide production = assay: Superoxide production, NBT reduction in membrane homogenates; type: biochemical, rat; conditions: NADH (0.7 mM)
Description: The assay medium for measurement of superoxide production consisted of a 50 mM phosphate buffer (Na2HPO4, NaH2PO4, pH 7,4), 0.5 mg/ml nitro blue tetrazolium (NBT) as a redox dye and CI or CII substrates. The reaction was started by the addition of 0.1 mg/ml membranes homogenates for 360 min (25° C.) with or without decylubiquinone and ETC inhibitors.

electron transport chain = conditions: human tissue cell membrane microarrays
Description: (§2) Membrane homogenates isolated from human liver were suspended in buffer and they were printed (4 nL per spot, 2-5 replicates per sample) at increasing concentrations together with internal patrons onto glass slides using a non-contact microarrayer (Nano_plotter NP 2.1). The same process was used for developing cell membrane microarrays of different human tissues or rat tissues. Microarrays were stored at −20° C. until they were used. ETC activity assay using DAB and NBT as redox dyes
(§3) The assay buffer consisted of a 10 mM phosphate buffer (pH 7.4), 0.05% 3,3′-diaminobenzidine (DAB) or NBT (Nitro blue tetrazolium), 0.2 mM EGTA, 3 mg/ml BSA with or without mitochondrial ETC substrates and electron carriers, such as NADH and succinate. The reaction was started by adding 100 μl of the assay buffer to cell membrane microarrays using an incubation chamber. DAB oxidation or NBT reduction were measured every 20 min using a colorimetric high resolution scanner (Epson Perfection V750 Pro) for 24 hours.
(§4) Microphotographs were captured with the same light parameters and the collection of images was quantified with the MAPIX software (version 7.3.1). The optical densities obtained at different times were analyzed and the slope determined in the linear range was used to calculate the enzymatic rate.

[5] = test system: reactive oxygen species (ROS) such as superoxide; conditions: human tissue cell membrane microarrays
Description: as §2, §3, §4

N#CC(C#N)=NNc1cccc(Cl)c1 [CCCP]
effect on NADH evoked inhibition (inhibition period) of DAB oxidation, supercomplex activity ([1]; rat heart MMP): induces changes in both

O=[N+]([O-])c1ccc(O)c([N+](=O)[O-])c1 [DNP]
effect on NADH evoked inhibition (inhibition period) of DAB oxidation, supercomplex activity ([1]; rat heart MMP): does not alter DAB oxidation

NC(=O)C1=CN([C@@H]2O[C@H](COP(=O)(O)OP(=O)(O)OC[C@H]3O[C@@H](n4cnc5c(N)ncnc54)[C@H](O)[C@@H]3O)[C@@H](O)[C@H]2O)C=CC1 [NADH]
inhibition of DAB oxidation by the substrate itself ([1]; rat heart MMP): full blockage

NC(=O)C1=CN([C@@H]2O[C@H](COP(=O)(O)OP(=O)(O)OC[C@H]3O[C@@H](n4cnc5c(N)ncnc54)[C@H](OP(=O)(O)O)[C@@H]3O)[C@@H](O)[C@H]2O)C=CC1 [NADPH]
inhibition of DAB oxidation by the substrate itself ([1]; rat heart MMP): inhibits DAB oxidation

NC(=O)c1ccc[n+]([C@@H]2O[C@H](COP(=O)([O-])OP(=O)(O)OC[C@H]3O[C@@H](n4cnc5c(N)ncnc54)[C@H](O)[C@@H]3O)[C@@H](O)[C@H]2O)c1 [NAD]
effect on NADPH consumption rate / NADPH-inhibition period of DAB oxidation ([1]; rat heart MMP): reduces it

CCCCCCCCCCCCOS(=O)(=O)[O-].[Na+] [SDS]
effect on NADH evoked inhibition (inhibition period) of DAB oxidation, supercomplex activity ([1]; rat heart MMP): effects also observed

[Zn+2] [Zinc]
effect on NADH evoked inhibition (inhibition period) of DAB oxidation, supercomplex activity ([1]; rat heart MMP): enhances the inhibition period evoked by NADH

CCCCCCCCCCC1=C(C)C(=O)C(OC)=C(OC)C1=O [dUQ, decylubiquinone]
effect on inhibitor mediated enhancement of NADH inhibition of DAB oxidation ([1]; dUQ at 10 μM, with NADH and rotenone, antimycin A or myxothiazol): reducing the inhibitor mediated effects; also recorded: partial blockage of the rotenone effect
effect on inhibitor mediated enhancement of NADH inhibition of DAB oxidation ([1]; dUQ at 50 μM, with NADH and rotenone or antimycin A): potentiating those evoked by rotenone and antimycin A
effect on DAB oxidation blockage at higher concentrations of succinate ([1]; rat heart MMP, higher concentrations of succinate (5 mM in FIG. 1e)): potentiates the DAB oxidation blockage
effect on NADH evoked inhibition (inhibition period) of DAB oxidation, supercomplex activity ([1]; rat heart MMP): slight reduction of the NADH evoked inhibition of DAB oxidation
effect on NADPH consumption rate / NADPH-inhibition period of DAB oxidation ([1]; rat heart MMP): NADPH-inhibition period is enhanced
effect on NADH-dependent inhibition period of DAB oxidation ([2]; NADH (0.7 mM)): significantly reduces the NADH-dependent inhibition period of DAB oxidation
partial blockage of the rotenone effect by dUQ ([2]; NADH with rotenone): not detected in monkey
effect of dUQ on the inhibitor's block of DCIP reduction, NADH ([3]; myxothiazol, dUQ (50 μM)): does not produce the same effect with myxothiazol
effect of dUQ on the inhibitor's block of DCIP reduction, succinate ([4]; antimycin A, dUQ (50 μM)): blocks the effect of antimycin A
superoxide production using NADH (superoxide production): increased in the presence of dUQ

C[C@@H]1CC[C@@]2(OC1)O[C@H]1[C@@H](O)[C@H]3[C@@H]4CC[C@H]5C[C@@H](O[C@@H]6O[C@H](CO)[C@H](O[C@@H]7O[C@H](CO)[C@@H](O)[C@H](O[C@@H]8OC[C@@H](O)[C@H](O)[C@H]8O)[C@H]7O[C@@H]7O[C@H](CO)[C@H](O)[C@H](O[C@@H]8O[C@H](CO)[C@@H](O)[C@H](O)[C@H]8O)[C@H]7O)[C@H](O)[C@H]6O)[C@H](O)C[C@]5(C)[C@H]4CC[C@]3(C)[C@H]1[C@@H]2C [digitonin]
effect on NADH evoked inhibition (inhibition period) of DAB oxidation, supercomplex activity ([1]; rat heart MMP): enhancement on the NADH inhibition period

CO/C(=C/C(N)=O)[C@H](C)[C@H](/C=C/c1csc(-c2csc([C@@H](C)/C=C/C=C/C(C)C)n2)n1)OC [myxothiazol]
effect on succinate evoked decrease in DAB oxidation ([1]; rat heart MMP): promotes the blockage of the succinate-derived electron input
DCIP reduction in the presence of NADH [3]: efficiently blocked DCIP reduction
DCIP reduction with succinate as substrate [4]: not myxothiazol did it

C=C(C)[C@H]1Cc2c(ccc3c2O[C@@H]2COc4cc(OC)c(OC)cc4[C@@H]2C3=O)O1 [rotenone]
effect on NADH evoked inhibition (inhibition period) of DAB oxidation, supercomplex activity ([1]; rat heart MMP): enhances the substrate evoked inhibition of DAB oxidation
superoxide production using NADH (superoxide production): induces superoxide formation

O=C(O)CCC(=O)O [succinate]
inhibition of DAB oxidation by the substrate itself ([1]; rat heart MMP): partial inhibition
ETC activity quantified using DAB as redox dye (electron transport chain): tissue specifically modulated
formation of reactive oxygen species (formazan production) [5]: produces the formation of reactive oxygen species (ROS) such as superoxide

antimycin A
effect on NADH evoked inhibition (inhibition period) of DAB oxidation, supercomplex activity ([1]; rat heart MMP): enhancement of the NADH-inhibition period
effect on succinate evoked decrease in DAB oxidation ([1]; rat heart MMP): blocks the electron flux generated by CII to cyt c
DCIP reduction in the presence of NADH [3]: not antimycin A efficiently blocked DCIP reduction
DCIP reduction with succinate as substrate [4]: did it
superoxide production using NADH (superoxide production): biphasic effect in which a maximum was observed in low micromolar range

cytochrome c [cyt c]
effect on NADH evoked inhibition (inhibition period) of DAB oxidation, supercomplex activity ([1]; rat heart MMP): cannot bypass the full inhibition caused by NADH on DAB oxidation; also recorded: decreases the time period in which a specific NADH concentration induces the DAB oxidation blockage
effect on NADPH consumption rate / NADPH-inhibition period of DAB oxidation ([1]; rat heart MMP): increases the NADPH consumption rate
effect on succinate evoked decrease in DAB oxidation ([1]; rat heart MMP): reduces the effect promoted by CI and CII substrates on DAB oxidation
NADH consumption rate in the presence of ETC inhibitors ([1]; soluble cyt c, with NADH and ETC inhibitors): accelerates the NADH consumption rate

sodium deoxycholate
effect on NADH evoked inhibition (inhibition period) of DAB oxidation, supercomplex activity ([1]; rat heart MMP): effects also observed
